In patent publication US9987332B2, “Pharmaceutical composition for use in the treatment of a neurodegenerative disease” (SANOFI-AVENTIS DEUTSCHLAND GMBH, priority 2011, dated 2018):

How the values were obtained:
[1] = Uptake by the brain: levels in mouse brain tissue after i.p. injection; assay type: in vivo; details: 2.5 nmol/kg bw ip.
Experimental: Values are the mean±S.E.M. *p<0.05, **p<0.01.
Values are the mean±S.E.M. *p<0.05.
3 doses (2.5 nmol/kg bw, 25 nmol/kg bw and 250 nmol/kg bw, ip.) were tested, and the levels found in mouse brain tissue 30 min and 3 h post injection were examined.

[2] = Kastin et al 2001; McClean et al 2011; cited from earlier work

Row | Compound | Levels in the brain at the lowest dose [1] | Crossing of the blood brain barrier (BBB) [2]
1 | CCCCCCCCCCCCCCCC(=O)N[C@@H](CCC(=O)NCCCC[C@H](NC(=O)[C@H](C)NC(=O)[C@H](C)NC(=O)[C@H](CCC(N)=O)NC(=O)CNC(=O)[C@H](CCC(=O)O)NC(=O)[C@H](CC(C)C)NC(=O)[C@H](Cc1ccc(O)cc1)NC(=O)[C@H](CO)NC(=O)[C@H](CO)NC(=O)[C@@H](NC(=O)[C@H](CC(=O)O)NC(=O)[C@H](CO)NC(=O)[C@@H](NC(=O)[C@H](Cc1ccccc1)NC(=O)[C@@H](NC(=O)CNC(=O)[C@H](CCC(=O)O)NC(=O)[C@H](C)NC(=O)[C@@H](N)Cc1cnc[nH]1)[C@@H](C)O)[C@@H](C)O)C(C)C)C(=O)N[C@@H](CCC(=O)O)C(=O)N[C@@H](Cc1ccccc1)C(=O)N[C@H](C(=O)N[C@@H](C)C(=O)N[C@@H](Cc1c[nH]c2ccccc12)C(=O)N[C@@H](CC(C)C)C(=O)N[C@H](C(=O)N[C@@H](CCCNC(=N)N)C(=O)NCC(=O)N[C@@H](CCCNC(=N)N)C(=O)NCC(=O)O)C(C)C)[C@@H](C)CC)C(=O)O [liraglutide, Arg^34,Lys^26(N^ε(γ-glutamyl(N^α-hexadecanoyl)))GLP-1(7-37)] | did not show an increase | have been shown to cross the blood brain barrier
2 | GLP-1: 30-amino acid peptide hormone encoded in the proglucagon gene | – | have been shown to cross the blood brain barrier
